From patent publication US20130156865A1, “POTENTIATION INDUCED BY PDE4 INHIBITORS IN THE TREATMENT OF LEUKEMIA” (Chiesi Farmaceutici S.p.A., priority 2011, published 2013)
“Also recorded” adds a separate entry of the source.

Experiments:
[1] = system: LAMA-RES, NB4 and NB4-AsR cell lines; assay: C2/ATO-induced apoptosis (annexin V) in the presence of caspase inhibitors; assay type: cell-based, human; conditions: caspase inhibitors 25 μM, 1 hour pre-treatment; 24 hours; FIG. 4
Text: On the Y-axis the histograms represent the percentage of apoptotic cells measured by Annexin V staining (% ANNEXIN V+). NEG indicates peptide control Cbz-Phe-Ala-fluoromethyl ketone (Z-FA-FMK), CASPASE-8 IN, specific caspase-8 inhibitor Cbz-Ile-Glu(Ome)-Thr-Asp(Ome)-fluoromethyl ketone (Z-IETD-FMK), CASPASE-9 IN, specific caspase-9 inhibitor Cbz-Leu-Glu(Ome)-His-Asp(Ome)-fluoromethyl ketone (Z-LEHD-FMK), PANCASPASE IN, pancaspase inhibitor Cbz-Val-Ala-Asp(Ome)-fluoromethyl ketone (Z-VAD-FMK); CTR, control; C2, compound C2; ATO, arsenic trioxide.
LAMA-RES, NB4 and NB4-AsR cell lines were pretreated with selective caspase inhibitors for 1 hour before adding C2 and/or ATO. After 24 hours the percentage of apoptotic cells was determined by the annexin V method. More specifically, the caspase inhibitors are: NEG peptide control Cbz-Phe-Ala-fluoromethyl ketone (Z-FA-FMK), CASPASE-8 inhibitor Cbz-Ile-Glu(Ome)-Thr-Asp(Ome)-fluoromethyl ketone (Z-IETD-FMK), CASPASE-9 inhibitor Cbz-Leu-Glu(Ome)-His-Asp(Ome)-fluoromethyl ketone (Z-LEHD-FMK), and the PANCASPASE inhibitor Cbz-Val-Ala-Asp(Ome)-fluoromethyl ketone (Z-VAD-FMK), all provided from Alexis (San Diego, Calif., USA). All caspase inhibitors were dissolved in DMSO, stocked in aliquots at −20° C., and used at the final concentration of 25 μM.

[2] = system: NB4 and NB4-AsR Acute Promyelocytic Leukemia cell lines; assay: Myeloid differentiation (CD11b expression, NBT reduction test) with ATRA or low-dose ATO; assay type: cell-based, human
Description: NB4 and NB4-AsR were seeded at 0.8×10^5 cells/mL in presence of vehicle (DMSO) or the PDE-4 inhibitor at the indicated doses for 30 minutes and then incubated with 0.1 μM and 1 μM of all-trans retinoic acid ([…]) promoting cell differentiation (see Chen GQ et al., Blood. 1997; 89(9):3345-53, which is incorporated herein by reference in its entirety). After 72 hours of treatment, early and late stage of differentiation was evaluated. More specifically, expression of the cell surface CD11b, an early-expressed maturation marker, was measured by flow cytometry using fluorescein isothiocyanate (FITC)-conjugated anti-CD11b antibody (Sigma Chemical Co.) according to the manufacturer's protocol. Late stage differentiation of leukemic cells was detected using the microscopic nitroblue tetrazolium (NBT) reduction test (Chen GQ et al., vide supra).
This assay is conducted by counting the cells containing blue NBT formazan deposits, which are formed by reduction of the membrane permeable, water-soluble, yellow-colored, nitroblue tetrazolium (NBT) by superoxide anions O2. Over 300 cells were counted per sample, and variation in replicates was routinely within 10%.

[3] = system: Acute Promyelocytic Leukemia (APL) cell line NB4 and Arsenic resistant NB4-AsR cell line; assay: Annexin-V apoptosis assay with PDE-4 inhibitor pre-treatment plus ATO in APL cells; assay type: cell-based, human
Description: (§1) The Parental Acute Promyelocytic Leukemia (APL) cell line NB4 and the Arsenic resistant NB4-AsR cell line were seeded at 0.8×10^5 cells/mL of fresh RPMI 1640 medium (Sigma Aldrich), supplemented with 10% fetal calf serum, 2 mM L-glutamine, penicillin G (100 U/mL), streptomycin ([…]). Cells were pre-treated for 30 minutes with vehicle (DMSO), CHF-6001 (1 and 10 μM), Roflumilast (1 and 10 μM) or Piclamilast (1, and 50 μM) and then incubated with ATO at the indicated doses. After 72 hours cells were collected, stained with Annexin-V FITC (according to the manufacturer's recommendations—Bender MedSystems) and processed by flow cytometry (FACSCalibur, Becton Dickinson, San Josè, Calif.) to evaluate the percentage of apoptosis as described in Lunghi P et al., Leukemia. 2005; 19(2):234-44, which is incorporated herein by reference in its entirety.

[4] = system: Imatinib-sensitive (K562-SENS, LAMA-SENS, KCL22-SENS) and Imatinib-resistant (K562-RES, LAMA-RES, KCL22-RES and BAF3 p210-T315I) chronic myeloid leukemia (CML) …; assay: Apoptosis (sub-G1 propidium iodide or Annexin-V) with PDE-4 inhibitor plus ATO in CML cell lines; assay type: cell-based, human
Description: as §1
The Imatinib-sensitive (K562-SENS, LAMA-SENS, KCL22-SENS) and Imatinib-resistant (K562-RES, LAMA-RES, KCL22-RES and BAF3 p210-T315I) chronic myeloid leukemia (CML) cell lines were cultured with the PDE-4 inhibitor and ATO as described in Example 1. After 72 hours cells were harvested, stained with Propidium Iodide to evaluate the percentage of cells with hypodiploid DNA content (sub-G1) or with Annexin-V FITC as described in Lunghi P et al Leukemia. 2005; 19(2):234-44, which is incorporated herein by reference in its entirety.

[5] = system: NB4 and NB4-AsR cell lines; assay: Myeloid marker panel (CD33, CD38, CD11b, CD14, CD15) and NBT reduction with C2/ATRA; assay type: cell-based, human
Description: On the Y-axis the histograms represent, for each cell line, the percentage of myeloid differentiation measured using a panel of myeloid markers (CD33, CD38, CD11b, CD15, CD14) and nitroblue tetrazolium reduction test (% NBT+). Vehicle indicates Dimethyl sulfoxide (DMSO); C2, compound C2; CTR, control; ATRA, all-trans retinoic acid.
NB4 e NB4-AsR cell lines were cultured with C2/ATRA for 72 hours, after which cells were harvested for determination of NBT reduction and expression of differentiation-associated surface antigens CD33, CD38, CD11b, CD14 and CD15. Cytofluorimetric analysis of surface antigen expression was performed using the following monoclonal antibodies all provided by Sigma Chemical: fluorescein isothiocyanate (FITC)-conjugated anti-CD33 antibody, (FITC)-conjugated anti-CD38 antibody, (FITC)-conjugated anti-CD11b antibody, (FITC)-conjugated anti-CD 14 antibody and (FITC)-conjugated anti-CD15 antibody. Briefly, each antibody was incubated at the proper dilution with cell samples in PBS containing 1% BSA for 30 minutes at room temperature. Cells were then washed and resuspended with PBS and analyzed by flow cytometer.

[6] = system: chronic lymphocytic leukemia (CLL) B-lymphocytes; conditions: in vitro; Mentz F et al., Br. J. Hematol. 1995; cited from earlier work

Structure (SMILES)	enhancement of ATO-induced cytotoxicity and caspase dependence (% Annexin V+) [1]	expression of the myeloid marker CD11b (% CD11b+) ([2]; 72 hours, FIG. 6)	effectiveness versus Roflumilast or Piclamilast in potentiating the cytodifferentiating action of ATRA or ATO ([2]; ATO-sensitive or ATO-resistant APL cell lines, same doses of comparator, P<0.001 to P<0.01)	potentiation of the cytodifferentiating action of ATRA and ATO ([2]; C2 1 μM/10 μM + ATRA or + ATO 1 μM, P<0.001 versus either mono-treatment, NB4 and NB4-AsR, 72 hours)	effectiveness versus roflumilast or piclamilast in potentiating the proapoptotic effects of ATO ([3]; APL cells incl. ATO-resistant, P<0.001 versus same doses of comparator + ATO, P<0.005 C2 1 μM versus comparator 10 μM)	potentiation of the proapoptotic effects of ATO (% Annexin V+ cells) ([3]; C2 1 μM/10 μM + ATO 1 μM, 72 hours, P<0.001 versus either mono-treatment, FIG. 1)	potentiation of the proapoptotic effects of ATO (% sub-G1 or % Annexin V+) ([4]; C2 1 μM/10 μM + ATO 2 μM (ATO 1 μM in Baf3-T315I), 72 hours, P<0.001, P<0.05 in K562-RES, versus either mono-treatment, FIG. 2)	effectiveness versus roflumilast or piclamilast in potentiating the proapoptotic effects of ATO ([4]; CML cell lines, same doses of comparator + ATO, P<0.001 to P<0.05)	dose inducing CD38 and CD11b expression relative to piclamilast ([5]; ATO-sensitive or ATO-resistant acute promyelocytic leukemia cells) [fold lower]	induction of the early myeloid markers CD38 and CD11b ([5]; C2 as mono-treatment, ATO-sensitive or ATO-resistant APL cells, 72 hours, FIG. 7)	enhancement of the cytodifferentiating action of ATRA ([5]; very low-dose ATRA, ATO-sensitive or ATO-resistant APL cell lines, 72 hours)	induction of apoptosis [6]
CS(=O)(=O)Nc1ccc(C(=O)O[C@@H](Cc2c(Cl)c[n+]([O-])cc2Cl)c2ccc(OC(F)F)c(OCC3CC3)c2)cc1OCC1CC1 [Compound C2, (-)-3-Cyclopropylmethoxy-4-methanesulfonylamino-benzoic acid 1-(3-cyclopropylmethoxy-4-difluoromethoxy-phenyl)-2-(3,5-dichloro-1-oxy-pyridin-4-yl)-ethyl ester]	strikingly enhances ATO-induced cytotoxicity in leukemia cells through a caspase-dependent mechanism	upregulates the expression of the myeloid marker CD11b	more effective than Roflumilast or Piclamilast	potentiates the cytodifferentiating action of ATRA and ATO	more effective than CHF 5152 (roflumilast) or CHF 5859 (piclamilast)	potentiates the proapoptotic effects of ATO	potentiates the proapoptotic effects of ATO	more effective than Roflumilast or Piclamilast	5	capable of inducing the expressions of the early myeloid markers CD38 and CD11b; also recorded: induces upregulation of the myeloid markers (CD38 and CD11b); also recorded: able to partially induce an early myeloid differentiation	enhances the cytodifferentiating action of very low-dose of ATRA	
Cn1c(=O)c2[nH]cnc2n(C)c1=O [theophylline]												induce apoptosis
